Experimental data as given in EP0723956B1, “Basically substituted benzoylguanidines, process for their preparation, their use as medicaments or diagnostics as well as medicaments containing them” (HOECHST AKTIENGESELLSCHAFT, priority 1995, dated 1996).
In brackets after ≈: the same amount, converted by molar mass.

Experiments:
[1] = target: T1, Na^+/H^+-Exchangers von Kaninchenerythrocyten (Oryctolagus cuniculus, UniProt P23791); assay: Inhibition of the Na+/H+ exchanger of rabbit erythrocytes (amiloride-sensitive Na+ influx, flame photometry); type: cell-based, Kaninchen; details: Inhibition des Na^+/H^+-Exchangers; erythrocytes of cholesterol-fed rabbits, hyperosmolar salt-sucrose medium, pH 7,4, 37°C
T1 construct: den Na^+-Influx in die Erythrocyten via Na^+/H^+-Austausch flammenphotometrisch bestimmen zu können; endogenous in cells; host or cells: erythrocytes in whole blood from the ear arteries of New Zealand White rabbits
T1 sequence (P23791 whole entry): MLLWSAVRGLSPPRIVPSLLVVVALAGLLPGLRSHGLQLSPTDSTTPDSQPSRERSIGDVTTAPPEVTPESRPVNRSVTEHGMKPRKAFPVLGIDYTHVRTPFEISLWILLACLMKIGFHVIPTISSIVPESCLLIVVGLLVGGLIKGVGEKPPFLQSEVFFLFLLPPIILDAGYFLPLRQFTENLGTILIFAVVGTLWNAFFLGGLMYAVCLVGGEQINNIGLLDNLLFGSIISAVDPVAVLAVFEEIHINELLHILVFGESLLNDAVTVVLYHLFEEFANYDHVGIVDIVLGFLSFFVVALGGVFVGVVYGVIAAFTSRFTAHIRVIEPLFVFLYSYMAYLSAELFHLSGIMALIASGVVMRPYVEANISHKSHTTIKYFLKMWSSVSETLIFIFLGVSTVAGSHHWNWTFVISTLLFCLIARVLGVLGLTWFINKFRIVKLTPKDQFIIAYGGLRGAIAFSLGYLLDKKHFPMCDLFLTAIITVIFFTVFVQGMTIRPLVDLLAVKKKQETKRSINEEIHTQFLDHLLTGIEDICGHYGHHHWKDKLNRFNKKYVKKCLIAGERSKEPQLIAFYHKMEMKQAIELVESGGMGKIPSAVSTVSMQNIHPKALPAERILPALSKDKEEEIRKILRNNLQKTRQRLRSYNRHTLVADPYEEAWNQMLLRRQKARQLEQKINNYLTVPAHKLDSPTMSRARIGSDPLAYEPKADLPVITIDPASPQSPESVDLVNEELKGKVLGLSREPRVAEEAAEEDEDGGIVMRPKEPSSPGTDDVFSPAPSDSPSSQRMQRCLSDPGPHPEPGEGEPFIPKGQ
Excerpt: Inhibition des Na^+/H^+-Exchangers von Kaninchenerythrocyten
Weiße Neuseeland-Kaninchen (Ivanovas) erhielten eine Standard-Diät mit 2 % Cholesterin für sechs Wochen, um den Na^+/H^+-Austausch zu aktivieren und so den Na^+-Influx in die Erythrocyten via Na^+/H^+-Austausch flammenphotometrisch bestimmen zu können. Das Blut wurde den Ohrarterien entnommen und durch 25 IE Kalium-Heparin ungerinnbar gemacht. Ein Teil jeder Probe wurde zur Doppelbestimmung des Hämatokrits durch Zentrifugieren benutzt. Aliquots von jeweils 100 µl dienten zur Messung des Na^+-Ausgangsgehalts der Erythrocyten.
Um den Amilorid-sensitiven Natrium-lnflux zu bestimmen, wurden 100 µl jeder Blutprobe in jeweils 5 ml eines hyperosmolaren Salz-Sucrose-Mediums (mmol/l: 140 NaCl, 3 KCI, 150 Sucrose, 0,1 Ouabain, 20 Tris-hydroxymethyl-aminomethan) bei pH 7,4 und 37°C inkubiert. Die Erythrocyten wurden danach dreimal mit eiskalter MgCl2-Ouabain-Lösung (mmol/l: 112 MgCl2, 0,1 Ouabain) gewaschen und in 2,0 ml destilliertem Wasser hämolysiert. Der intrazelluläre Natriumgehalt wurde flammenphotometrisch bestimmt.
Der Na^+-Nettoinflux wurde aus der Differenz zwischen Natrium-Ausgangswerten und dem Natriumgehalt der Erythrocyten nach Inkubation errechnet. Der Amiloridhemmbare Natrium-lnflux ergab sich aus der Differenz des Natriumgehalts der Erythrocyten nach Inkubation mit und ohne Amilorid 3 x 10-4 mol/l. Auf diese Weise wurde auch bei den erfindungsgemäßen Verbindungen verfahren.

[2] = system: Rattenherzen; details: isolated rat hearts; Eur. Heart J. 9 (suppl.1): 167 (1988); cited from earlier work
[3] = Water solubility; type: physicochemical; details: Dihydrochlorid, pH = 5.3, read-out: Wasserlöslichkeit

Row | Molecule | IC50 [1] [nM] | further results
1 | CN(C)CCSCc1ccc(Oc2ccc(C(=O)N=C(N)N)cc2S(C)(=O)=O)cc1 [Beispiel 15, 4-[4-(2-Dimethylaminoethyl)thiomethyl-phenoxy]-3-methylsulfonylbenzoyl-guanidin] | 10 | –
2 | CCN(c1nc(N)c(C(=O)N=C(N)N)nc1Cl)C(C)C [Ethylisopropylamilorid] | – | künstlich ausgelöstes Kammerflimmern [2]: Noch potenter als Amilorid
3 | CN(C)CCNS(=O)(=O)c1ccc(Oc2ccc(C(=O)N=C(N)N)cc2C(F)(F)F)cc1 [Beispiel 8, 4-[4-(N-Dimethylaminoethyl)sulfamoyl]phenoxy-3-trifluormethylbenzoylguanidin] | 5 | –
4 | CN(C)CCc1ccc(Oc2ccc(C(=O)N=C(N)N)cc2S(C)(=O)=O)cc1 [Beispiel 14, 3-Methylsulfonyl-[4-(2-dimethylaminoethyl)phenoxy]benzoyl-guanidin] | 50 | –
5 | CN1CCN(S(=O)(=O)c2ccc(Oc3ccc(C(=O)N=C(N)N)cc3C(F)(F)F)cc2)CC1 [Beispiel 4, 4-[4-(4-Methylpiperazinosulfonyl)phenoxy]-3-trifluormethylbenzoylguanidin] | 82 | –
6 | CN(C)CCSc1ccc(Oc2ccc(C(=O)N=C(N)N)cc2S(C)(=O)=O)cc1 [Beispiel 16, 4-[4-(2-Dimethylaminoethylthio)phenoxy]-3-methylsulfonylbenzoylguanidin] | 160 | –
7 | CN(C)CCCNS(=O)(=O)c1ccc(Oc2ccc(C(=O)N=C(N)N)cc2C(F)(F)F)cc1 [Beispiel 7, 4-[4-(N-Dimethylamino-n-propyl)sulfamoyl]phenoxy-3-trifluormethylbenzoylguanidin] | 60 | –
8 | CN(C)CCN(C)S(=O)(=O)c1ccc(Oc2ccc(C(=O)N=C(N)N)cc2C(F)(F)F)cc1 [Beispiel 3, 4-[4-N-(Dimethylaminoethyl)-methylsulfamoyl]phenoxy-3-trifluormethylbenzoylguanidin] | 50 | –
9 | N=S(N)(=O)c1ccc(Oc2ccc(C(=O)N=C(N)N)cc2C(F)(F)F)cc1 (stereo not shown) [Beispiel 9, 4-(4-lmidamidosulfonyl)phenoxy-3-trifluormethyl-benzoylguanidin] | 100 | –
10 | NC(N)=NC(=O)c1ccc(Oc2ccc(S(=O)(=O)NCCN3CCCC3)cc2)c(C(F)(F)F)c1 [Beispiel 5, 4-[4-(2-Pyrolidinethylaminosulfonyl)phenoxy]-3-trifluormethylbenzoylguanidin] | 300 | –
11 | CN(C)CCS(=O)(=O)c1ccc(Oc2ccc(C(=O)N=C(N)N)cc2S(C)(=O)=O)cc1 [Beispiel 17, 4-[4-(2-Dimethylaminoethylsulfonyl)phenoxy]-3-methylsulfonylbenzoylguanidin] | 1000 | –
12 | NC(N)=NC(=O)c1ccc(Oc2ccc(S(N)(=O)=O)cc2)c(C(F)(F)F)c1 [Beispiel 1, 4-(4-Aminosulfonyl)phenoxy-3-trifluormethyl-benzoylguanidin] | 800 | –
13 | NC(N)=NC(=O)c1ccc(Oc2ccc(S(=O)(=O)NCCN3CCCCC3)cc2)c(C(F)(F)F)c1 [Beispiel 6, 4-[4-(2-Piperidinethylaminosulfonyl)phenoxy]-3-trifluormethylbenzoylguanidin] | 100 | –
14 | 4-[4-(N-t-Butylimido-N'-t-butyl)sulfamoyl]-3-trifluormethyl-benzoylguanidin [Beispiel 2] | 320 | –
15 | NC(N)=NC(=O)c1nc(Cl)c(N)nc1N [Amilorid] | – | künstlich ausgelöstes Kammerflimmern [2]: völlig unterdrückt

The next lines start with results.

Row | IC50 [1] [nM] | Molecule | further results
16 | 200 | CS(=O)(=O)c1cc(C(=O)N=C(N)N)ccc1Oc1ccc(S(N)(=O)=O)cc1 [Beispiel 33, 3-Methylsulfonyl-4-(4-sulfamoylphenoxy)benzoylguanidin] | –
17 | 8 | CN(C)CCSCc1ccc(Oc2ccc(C(=O)N=C(N)N)cc2C(F)(F)F)cc1 [Beispiel 19, 4-[4-(2-Dimethylaminoethyl)thiomethyl-phenoxy]-3-trifluormethylbenzoylguanidin] | –
18 | 14 | CN(C)CCc1ccc(Oc2ccc(C(=O)N=C(N)N)cc2C(F)(F)F)cc1 [Beispiel 21, 3-Trifluormethyl-4-[4-(2-dimethylaminoethyl)phenoxy]benzoyl-guanidin] | solubility [3]: 49 mg/mL (≈ 124 mM)
19 | 70 | CN(C)CCS(=O)(=O)Cc1ccc(Oc2ccc(C(=O)N=C(N)N)cc2C(F)(F)F)cc1 [Beispiel 47, 4-[4-(2-Dimethylaminoethyl)sulfonylmethyl-phenoxy]-3-trifluormethylbenzoyl-guanidin] | –
20 | 40 | CN(C)CCSc1ccc(Oc2ccc(C(=O)N=C(N)N)cc2C(F)(F)F)cc1 [Beispiel 20, 4-[4-(2-Dimethylaminoethylthio)phenoxy]-3-trifluormethylbenzoylguanidin] | –
21 | 200 | CS(=O)(=O)c1cc(C(=O)N=C(N)N)ccc1Oc1ccc(C(=O)N=C(N)N)cc1 [Beispiel 18, 4-[(4-Guanidinocarbonyl)phenoxy]-3-methylsulfonylbenzoylguanidin] | –
22 | 90 | CN(C)CCS(=O)(=O)Cc1ccc(Oc2ccc(C(=O)N=C(N)N)cc2S(C)(=O)=O)cc1 [Beispiel 46, 4-[4-(2-Dimethylaminoethyl)sulfonylmethyl-phenoxy]-3-methylsulfonylbenzoyl-guanidin] | –
23 | 120 | CN=C(NC)SCC(=O)c1ccc(Oc2ccc(C(=O)N=C(N)N)cc2S(C)(=O)=O)cc1 [Beispiel 28, 4-[4-(N,N'-Dimethyl-S-isothiuronyl-acetyl)phenoxy]-3-methylsulfonylbenzoylguanidin] | –
24 | 440 | CS(=O)(=O)c1cc(C(=O)N=C(N)N)ccc1Oc1ccc(C(O)Cn2ccnc2)cc1 (stereo not shown) [Beispiel 32, 4-[4-(2-N-lmidazolyl-1-hydroxyethyl)phenoxy]-3-methylsulfonylbenzoylguanidin] | –
